Several values for one entry are separate records, joined by “and”; a condition that tells them apart may be missing. Identical values can stand only once. Entries after “also recorded” stand apart in the source; their conditions may differ.
Assays:
[1] = Daily urinary nitrogen losses of intravenously infused rats; format: in vivo, rat (male Sprague-Dawley); conditions: Table 2, Example 2
Experimental: (§1) Water was available ad libitum at all times.
(§2) The vein was then ligated dorsally to the catheter. […] Body weights were measured daily.
(§3) Infusate volume, oral food intake, body weight and urinary volume and total nitrogen were monitored daily for each rat. Infusate volume and food intake were determined by weighing the appropriate container at the start and end of each 24 hr. period. Measurements were recorded between 9 and 10 AM each day. At the end of the 7th day, rats were sacrificed, and blood and liver were harvested. Plasma was separated for measurement of free fatty acids, glucose, and ketone bodies. Liver was weighed and a sample was fixed in buffered formalin for gross histology.
(§4) The data were analyzed for significance by the one-way analysis of variance with repeated measures and comparing the effect of dietary treatment on each day. […] The null hypothesis was concluded invalid if p≤0.05. The analysis of variance was computed on a SAS statistical package. […]

[2] = Daily body weight of intravenously infused rats; format: in vivo, rat (male Sprague-Dawley); conditions: for Daily Body Weight: Table 4, Example 2
Experimental: as §1, §2, §3
(§5) The data were analyzed for significance by the one-way analysis of variance with repeated measures and comparing the effect of dietary treatment on each day. […] The null hypothesis was concluded invalid if p≤0.05. The analysis of variance was computed on a SAS statistical package.
(§6) This compound has an estimated energy density of 4.86 kcal/gram based on thermodynamic data from similar compounds.

[3] = Plasma free fatty acids, glucose and ketone bodies after 7 days of infusion; format: in vivo, rat (male Sprague-Dawley); conditions: end of day 7; for ACAC / BOHB / FFa / Glucose / Ratio: A/B / T.KB: Table 5, Example 2; for T.KB: total ketone bodies
Experimental: as §3, §5

[4] = Mortality and gross toxicity on intravenous infusion; conditions: Example 2; 12.5 g/100 mL in 0.9% saline, 50 mL/day i.v.
Experimental: as §1, §2

[5] = Oral dietary nitrogen (food) intake of intravenously infused rats; format: in vivo, rat (male Sprague-Dawley); conditions: Table 1, Example 2, average of 7 rats
[6] = Nitrogen balance (difference between intake and urinary output); format: in vivo, rat (male Sprague-Dawley); conditions: for nitrogen balance: 7 days; for Nitrogen Balance, Difference Between Intake and Output: Table 3, Example 2
Experimental: as §1, §2, §3, §5
FIG. 3 illustrates the difference between oral intake and urinary nitrogen output which is termed nitrogen balance. It is representative of nitrogen balance because urinary nitrogen is the major route for body loss of nitrogen.
The experimental compound contains 8% nitrogen. With an infusion of 5.6 grams/day, infused nitrogen would provide approximately 450 mg more than that listed in the data tables. The final balance figures includes this number which is calculated based on the actual daily infusion rate for each rat.

[7] = Oral dietary nitrogen (food) intake of intravenously infused rats; format: in vivo, rat (male Sprague-Dawley); conditions: for Dietary Nitrogen Intake: Table 1, Example 2
Experimental: as §1, §2, §3, §5, §6

[8] = Overall evaluation as a parenteral nutrient; format: in vivo, rat (male Sprague-Dawley); conditions: in words
Experimental: as §1, §2, §3, §5

[9] = Liver weight after 7 days of infusion; format: in vivo, rat (male Sprague-Dawley); conditions: for Liver/100 GM / Liver Wt.: Table 5, Example 2; for Liver/100 GM: as percentage of body weight
Experimental: as §3, §4

[10] = day 1, individual rat, listed as BISACETOACETYLGLYCEROL
[11] = day 2, individual rat, listed as BISACETOACETYLGLYCEROL
[12] = day 3, individual rat, listed as BISACETOACETYLGLYCEROL
[13] = day 4, individual rat, listed as BISACETOACETYLGLYCEROL
[14] = day 5, individual rat, listed as BISACETOACETYLGLYCEROL
[15] = day 6, individual rat, listed as BISACETOACETYLGLYCEROL
[16] = day 7, individual rat, listed as BISACETOACETYLGLYCEROL

Glycerol bis-acetoacetate [Compound 1]
Urinary Nitrogen ([1]; day 1, average of 7 rats): 166 mg | Urinary Nitrogen [1, 10]: 116.21 mg and 250.2 mg and 187.3 mg and 123.37 mg and 182.18 mg and 159.89 mg and 145.06 mg | Urinary Nitrogen ([1]; day 2, average of 7 rats): 192 mg | Urinary Nitrogen [1, 11]: 315.78 mg and 264.22 mg and 139.27 mg and 174.34 mg and 187.22 mg and 165.19 mg and 94.71 mg | Urinary Nitrogen ([1]; day 3, average of 7 rats): 137 mg | Urinary Nitrogen [1, 12]: 181.94 mg and 142.42 mg and 62.97 mg and 164.52 mg and 162.29 mg and 140.13 mg and 104.72 mg | Urinary Nitrogen ([1]; day 4, average of 7 rats): 173 mg | Urinary Nitrogen [1, 13]: 294.68 mg and 253.62 mg and 47.06 mg and 193.72 mg and 139.67 mg and 115.59 mg and 168.33 mg | Urinary Nitrogen ([1]; day 5, average of 7 rats): 215 mg | Urinary Nitrogen [1, 14]: 289.81 mg and 303.16 mg and 254.66 mg and 144.16 mg and 274.72 mg and 97.81 mg and 142.32 mg | Urinary Nitrogen ([1]; day 6, average of 7 rats): 195 mg | Urinary Nitrogen [1, 15]: 283.02 mg and 191.83 mg and 11.17 mg and 134.85 mg and 378.79 mg and 184.37 mg and 179.01 mg | Urinary Nitrogen ([1]; day 7, average of 7 rats): 219 mg | Urinary Nitrogen [1, 16]: 381.14 mg and 194.98 mg and 152.92 mg and 192.67 mg and 269.64 mg and 203.37 mg and 138.8 mg | Daily Body Weight ([2]; day 0, average of 7 rats): 262 Grams | Daily Body Weight ([2]; day 0, individual rat, listed as BISACETOACETYLGLYCEROL): 282 Grams and 278 Grams and 233 Grams and 283 Grams and 268 Grams and 244 Grams | Daily Body Weight ([2]; day 1, average of 7 rats): 268 Grams | Daily Body Weight [2, 10]: 311 Grams and 290 Grams and 230 Grams and 284 Grams and 268 Grams and 249 Grams and 241 Grams | Daily Body Weight ([2]; day 2, average of 7 rats): 268 Grams | Daily Body Weight [2, 11]: 273 Grams and 289 Grams and 232 Grams and 297 Grams and 279 Grams and 249 Grams and 256 Grams | Daily Body Weight ([2]; day 3, average of 7 rats): 273 Grams | Daily Body Weight [2, 12]: 278 Grams and 286 Grams and 258 Grams and 292 Grams and 256 Grams and 263 Grams | Daily Body Weight ([2]; day 4, average of 7 rats): 271 Grams | Daily Body Weight [2, 13]: 265 Grams and 284 Grams and 226 Grams and 302 Grams and 280 Grams and 262 Grams and 276 Grams | Daily Body Weight ([2]; day 5, average of 7 rats): 276 Grams | Daily Body Weight [2, 14]: 261 Grams and 276 Grams and 234 Grams and 306 Grams and 285 Grams and 293 Grams and 277 Grams | Daily Body Weight ([2]; day 6, average of 7 rats): 269 Grams | Daily Body Weight [2, 15]: 253 Grams and 261 Grams and 252 Grams and 310 Grams and 281 Grams and 269 Grams and 260 Grams | Daily Body Weight ([2]; day 7, average of 7 rats): 266 Grams | Daily Body Weight [2, 16]: 249 Grams and 261 Grams and 253 Grams and 307 Grams and 276 Grams and 273 Grams and 245 Grams | change in body weight ([2]; in words, 7 days): gained weight; also recorded: body weight changes which were consistent with nitrogen balance data; also recorded: better growth | ACAC ([3]; plasma, average of 7 rats): 0.716 mmol/L | BOHB ([3]; plasma, average of 7 rats): 0.776 mmol/L | FFa ([3]; plasma, average of 7 rats): 0.563 mmol/L | Glucose ([3]; plasma, average of 7 rats): 117.789 mg/dL | Ratio: A/B ([3]; plasma, average of 7 rats): 1.171 | ACAC ([3]; plasma, individual rat): 0.982 mmol/L and 0.851 mmol/L and 0.939 mmol/L and 0.447 mmol/L and 0.869 mmol/L and 0.550 mmol/L and 0.377 mmol/L | BOHB ([3]; plasma, individual rat): 0.797 mmol/L and 0.770 mmol/L and 1.059 mmol/L and 0.529 mmol/L and 1.021 mmol/L and 0.404 mmol/L and 0.849 mmol/L | FFa ([3]; plasma, individual rat): 0.540 mmol/L and 0.574 mmol/L and 0.745 mmol/L and 0.466 mmol/L and 0.483 mmol/L and 0.615 mmol/L and 0.519 mmol/L | Glucose ([3]; plasma, individual rat): 94.920 mg/dL and 149.000 mg/dL and 114.200 mg/dL and 163.500 mg/dL and 89.000 mg/dL and 122.100 mg/dL and 91.800 mg/dL | Ratio: A/B ([3]; plasma, individual rat): 0.812 and 0.905 and 1.128 and 1.185 and 1.175 and 0.735 and 2.254 | T.KB ([3]; plasma, average of 7 rats): 1.492 mmol/L | T.KB ([3]; plasma, individual rat): 1.779 mmol/L and 1.621 mmol/L and 1.998 mmol/L and 0.976 mmol/L and 1.890 mmol/L and 0.954 mmol/L and 1.226 mmol/L | blood / plasma glucose ([3]; in words): normal blood glucose; also recorded: did not have the hyperglycemia associated with glucose infusion | free fatty acid concentration ([3]; in words, plasma): not different for the three groups | ketone bodies ([3]; in words, plasma): elevated; also recorded: approximately the maximum associated with total fasting in the rat | rats died from causes unknown [4]: Five | Dietary Nitrogen Intake ([5]; day 1): 216 MG N | Dietary Nitrogen Intake ([5]; day 2): 333 MG N | Dietary Nitrogen Intake ([5]; day 3): 408 MG N | Dietary Nitrogen Intake ([5]; day 4): 454 MG N | Dietary Nitrogen Intake ([5]; day 5): 419 MG N | Dietary Nitrogen Intake ([5]; day 7): 389 MG N | nitrogen balance ([6]; Example 2): around +200 mg/day | Nitrogen Balance, Difference Between Intake and Output ([6]; day 1, average of 7 rats): 50 MG N | Nitrogen Balance, Difference Between Intake and Output [6, 10]: 2.23 MG N and -125.18 MG N and -49.12 MG N and 488.57 MG N and 67.86 MG N and -8.55 MG N and -26.62 MG N | Nitrogen Balance, Difference Between Intake and Output ([6]; day 2, average of 7 rats): 141 MG N | Nitrogen Balance, Difference Between Intake and Output [6, 11]: 26.38 MG N and 170.06 MG N and 345.48 MG N and 260.22 MG N and 157.23 MG N and 36.89 MG N | Nitrogen Balance, Difference Between Intake and Output ([6]; day 3, average of 7 rats): 271 MG N | Nitrogen Balance, Difference Between Intake and Output [6, 12]: 120.74 MG N and 489.26 MG N and 42.31 MG N and 282.92 MG N and 469.39 MG N and 333.63 MG N and 158.48 MG N | Nitrogen Balance, Difference Between Intake and Output ([6]; day 4, average of 7 rats): 281 MG N | Nitrogen Balance, Difference Between Intake and Output [6, 13]: 376.48 MG N and 384.64 MG N and 31.9 MG N and 385.32 MG N and 274.87 MG N and 292.37 MG N and 219.89 MG N | Nitrogen Balance, Difference Between Intake and Output ([6]; day 5, average of 7 rats): 204 MG N | Nitrogen Balance, Difference Between Intake and Output [6, 14]: 269.49 MG N and 269.3 MG N and -24.36 MG N and 244.06 MG N and 343.8 MG N and 171.97 MG N and 153.78 MG N | Nitrogen Balance, Difference Between Intake and Output ([6]; day 6, average of 7 rats): 166 MG N | Nitrogen Balance, Difference Between Intake and Output [6, 15]: 256.54 MG N and 38.47 MG N and 48.05 MG N and 240.21 MG N and 246.31 MG N and 230.17 MG N and 103.93 MG N | Nitrogen Balance, Difference Between Intake and Output ([6]; day 7, average of 7 rats): 170 MG N | Nitrogen Balance, Difference Between Intake and Output [6, 16]: 184.74 MG N and 68.22 MG N and -1.58 MG N and 228.45 MG N and 375.2 MG N and 270.39 MG N and 65.18 MG N | nitrogen balance ([6]; in words): positive nitrogen balances; also recorded: better growth and nitrogen retention | Dietary Nitrogen Intake [7, 10]: 118.44 MG N and 125.02 MG N and 138.18 MG N and 611.94 MG N and 250.04 MG N and 151.34 MG N | Dietary Nitrogen Intake [7, 11]: 342.16 MG N and 434.28 MG N and 131.6 MG N and 519.82 MG N and 447.44 MG N and 322.42 MG N | Dietary Nitrogen Intake [7, 12]: 302.68 MG N and 631.68 MG N and 105.28 MG N and 447.44 MG N and 473.76 MG N and 263.2 MG N | Dietary Nitrogen Intake [7, 13]: 671.16 MG N and 638.26 MG N and 78.96 MG N and 579.04 MG N and 414.54 MG N and 407.96 MG N and 388.22 MG N | Dietary Nitrogen Intake [7, 14]: 559.3 MG N and 572.46 MG N and 230.3 MG N and 388.22 MG N and 618.52 MG N and 269.78 MG N and 296.1 MG N | Dietary Nitrogen Intake ([7]; day 6, average of 7 rats): 361 MG N | Dietary Nitrogen Intake [7, 15]: 539.56 MG N and 230.3 MG N and 59.22 MG N and 375.06 MG N and 625.1 MG N and 414.54 MG N and 282.94 MG N | Dietary Nitrogen Intake [7, 16]: 565.88 MG N and 263.2 MG N and 151.34 MG N and 421.12 MG N and 644.84 MG N and 473.76 MG N and 203.98 MG N | differences in dietary nitrogen intake among the three groups ([7]; in words, vs saline and other groups, 7 days): no differences in dietary nitrogen intake among the three groups | efficacy as parenteral nutrient / energy source [8]: providing significant energy beyond that which was available from oral dietary intake | efficacy as parenteral nutrient / energy source ([8]; listed as 1,2- and 1,3-bisacetoacetyl glycerol): unexpectedly high nutrient activity | Liver/100 GM ([9]; average of 7 rats): 3.223 | Liver/100 GM ([9]; individual rat): 2.859 and 3.494 and 3.130 and 3.795 and 2.482 and 3.183 and 3.620 | Liver Wt. ([9]; end of day 7, average of 7 rats): 8.603 Grams | Liver Wt. ([9]; end of day 7, individual rat): 7.12 Grams and 9.12 Grams and 7.92 Grams and 11.65 Grams and 6.85 Grams and 8.69 Grams and 8.87 Grams | liver weight and percentage liver weight ([9]; in words, end of day 7): similarity between glucose infused and experimental compound infused rats liver

— patent US5420335A, “Parenteral nutrients based on watersoluble glycerol bisacetoacetates” (priority 1993, dated 1995)
